According to US12697336B2, “RUC-4 formulations” (CeleCor Therapeutics, Inc., priority 2021, dated 2026):

How the values were obtained:
[1] = Example 1 formulation stability test: overnight (~18 hours) storage at −20° C., 5° C. and 20° C., visual observation; format: physicochemical; settings: pH 4.75
Procedure: Formulation solutions as described in Table 3 below were prepared and divided in to three equal portions that were stored overnight (~18 hours) at −20° C., 5° C. and 20° C., respectively. The formulations were observed, and the characteristics reported in Table 3 were noted, immediately for RT, immediately upon removing 5° C. formulations from refrigerator, and upon thawing of −20° C. formulations. Clear solutions of Compound (1) were obtained at pH 4.75 at concentrations of ≤17.5 mg/mL.

[2] = Solubility of Compound (1) in acetic acid; format: physicochemical; settings: organic solvent or mixture, read-out: Solubility in acetic acid (obtainable solution concentration)
Procedure: In particular, solutions of greater than 300 mg/mL are obtainable.

In the case of `NCC(=O)Nc1cncc(-c2nn3c(=O)cc(N4CCNCC4)nc3s2)c1` [Compound (1)], the “Concentration at which clear solutions were obtained” value [1] is reported as at most 17500 µg/mL and the solubility [2] is reported as over 300 mg/mL.
